Assay [1] has as its system enzyme (protease) of the present invention. The experiment in a line: Cutting activity (specific protease activity) on fluorescence-labeled synthetic peptides. The format is biochemical, Aureobacterium sp. MIM-CG-9535-I. To be noted: for Present or Absent of Specific degradation activity: fluorescence-labeled peptides with varied peptide chain; for Protease cutting activity (degradation of synthetic substrate), Enzyme of the present invention: 100 microgram labeled peptide, 1 microgram protease, 10 min at 37° C. in the dark. The text has this: Fluorescence-labeled peptides having the amino acid sequences denoted by (1) to (3) below are synthesized by the usual methods. Specifically, a fluorescent substance is attached as label on one side of the cutting site of a peptide having one of the amino acid sequences listed below, and a light-extinguishing substance is attached on the other side. Only when the labeled peptide has been cleaved is florescence detected. No fluorescence is detected even when employed as substrate for an enzyme not having cutting activity on the amino acid sequences given below. The substances used to label the peptide are not specifically limited other than that they be fluorescent and light-extinguishing substances. For example, N-methylanthranic acid can be employed as the fluorescent substance, and a dinitrophenyl group can be employed as the light-extinguishing substance.
To determine specific protease activity in the present invention, a fluorescence-labeled synthetic peptide, obtained by labeling a peptide having one of the amino acid sequences denoted by (1) to (3) above with N-methylanthranic acid on one end and labeling the other end thereof with a dinitrophenyl group, is employed as substrate and incubated with a prescribed quantity of enzyme for a prescribed period in the dark. Subsequently, the product is separated by reverse-phase chromatography and the fluorescent intensity of the separated product is measured to determine cutting activity.
Nma/Dnp florescence-labeled peptides (excitation wavelength 340 nm, fluorescence wavelength 440 nm) having the amino acid sequences of (1) to (3) below labeled on one end with N-methylanthranic acid and on the other end with a dinitrophenyl group were synthesized with a peptide synthesizer by the usual method.
Employing as substrate one of the fluorescence-labeled synthetic peptides obtained, cutting activity was measured under the following conditions.
(§1) A 100 microgram quantity of fluorescence-labeled synthetic peptide was adjusted to 0.2 mg/mL with 10 mM Tris buffer solution, 1 microgram of the above protease of the present invention was added, and the mixture was incubated for 10 min at 37° C. in the dark. The enzyme reaction solution obtained was subjected to reverse-phase HPLC using TSKgel® ODS-80Ts (silica-based, reverse phase chromatography resin; Tosoh Corp.) from 0.1 percent TFA to 80 percent acetonitrile-0.1 percent TFA at a flow rate of 1 mL/min and a gradient of 40 min to separate the degraded peptides. Employing A215 and a fluorescence spectrometer for high-performance liquid chromatography made by Shimatsu Corp., fluorescent intensity was measured at an excitation wavelength of 340 nm and a fluorescence wavelength of 440 nm.
The structure of the peptide chain was varied in the amino acid sequence of (1) above, fluorescence-labeled synthetic peptides were synthesized in the same manner as above, and cutting activity was measured in the same manner as above to verify the amino acids required for the above specific degradation activity.
Target sequence in this assay (as listed by the source): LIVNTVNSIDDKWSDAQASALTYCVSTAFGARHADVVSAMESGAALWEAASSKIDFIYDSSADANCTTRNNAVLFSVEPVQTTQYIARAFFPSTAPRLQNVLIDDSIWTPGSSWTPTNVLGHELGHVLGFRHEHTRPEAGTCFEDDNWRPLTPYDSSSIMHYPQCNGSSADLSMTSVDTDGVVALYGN

The subject of assay [2] is protease described in Japanese Patent Application Publication No. 2000-102381. Conditions: protease of JP 2000-102381; cited from earlier work.
In assay [3] the test system is enzyme (protease) of the present invention. Format: biochemical, Aureobacterium sp. MIM-CG-9535-I. The procedure:
Reagents in the form of o-phenanthroline, EDTA, EGTA, L-cysteine, 2-mercaptoethanol, N-ethylmaleimide, antipain, leupepsin, E-64, phosphoramidon, trypsin inhibitor, chymostatin, TCPK, PMSF, and iodoacetamide were employed as inhibitors.
Each of the reagents was mixed with the synthetic substrate after which the enzyme was added. The degradation reaction was conducted for 30 min at 37° C. and the enzymatic activity was measured. Adopting the case where no inhibitor was added as 100 percent, the relative residual enzymatic activity was calculated.

The subject of assay [4] is protease described in Japanese Patent Application Publication No. 2000-102381. To be noted: protease of JP 2000-102381; cited from earlier work. The source holds these as a separate data set.
Assay [5] relates to enzyme described in Japanese Patent Application Publication No. 2000-102381. The experiment in a line: Cutting activity on fluorescence-labeled synthetic peptides, comparison enzyme. The format is biochemical, Aureobacterium. Conditions: identical conditions: 10 min at 37° C. in the dark. As for the experimental part:
as §1
For comparison, the cutting activity of the enzyme described in the above-cited patent application publication (Japanese Patent Application Publication No. 2000-102381) was measured under identical conditions.

[6] abbreviates: inhibitor 20 mM, 30 min at 37° C., no inhibitor = 100 percent.
Where [7] appears, read: inhibitor 0.05 mM, 30 min at 37° C., no inhibitor = 100 percent.

Where two headings read alike, the source gives them in different places. Starred links: 1 amine or outer side, 2 acyl side, 3 side chain; linkers in the order of their positions; H or OH if unused. Non-standard residues stand in square brackets, D forms with d. No end group written: not given here. *: point of attachment. K(DNP) = O=C([C@H](CCCCNc1ccc([N+](=O)[O-])cc1[N+](=O)[O-])N[*:1])[*:2]; Dnp = O=[N+]([O-])c1ccc(*)c([N+](=O)[O-])c1; Benzoyl(2-NHMe) = CNc1ccccc1C(=O)*

Take “GPAG FA: fluorescence-labeled synthetic peptide, single letter code (GPAGFA; also: fluorescence label, site not given here)”: the “Present or Absent of Specific degradation activity” value (“Present or Absent” for short) in assay [1] is given as “Absent”.
In the case of `CCN1C(=O)C=CC1=O` [N-Ethylmaleimide, N-ethylmaleimide], the Enzyme inhibition result in assay [2] is reported as “not”. In addition, in assay [3] (setting [6]), the “Residual activity (%)” value was 79%.
Consider `Cc1ccc(S(=O)(=O)N[C@@H](Cc2ccccc2)C(=O)CCl)cc1` [TCPK], for which the “Residual activity (%)” value in assay [3] (inhibitor 0.1 mM, 30 min at 37° C., no inhibitor = 100 percent) amounted to 95%.
`c1cnc2c(c1)ccc1cccnc12` [o-Phenanthroline, o-phenanthroline]: the Enzyme inhibition entry in assay [2] is recorded as “inhibited”. For the same molecule, the “Residual activity (%)” value in assay [3] (inhibitor 2 mM, 30 min at 37° C., no inhibitor = 100 percent) was 0%.
Regarding “DNP-Pro-Gln-Gly-Ile-Ala-Gly-Gln-D-Arg (Dnp-PQGIAGQ[dR]) [synthetic collagenase substrate]”, the Degradation activity result in assay [4] was “only slight degradation activity”.
Regarding “Pro-Ala-Gly-Phe-Ala-Gly-Pro (PAGFAGP; also: fluorescent label, type and site not given here) [PAG FAGP, fluorescence-labeled synthetic peptide, single letter code]”, the “Present or Absent” value in assay [1] was “Present”.
`O=C(O)CN(CCN(CC(=O)O)CC(=O)O)CC(=O)O` [EDTA, ethylenediamine tetraacetic acid]: in assay [2], the Enzyme inhibition entry was “not”. Further, the “Residual activity (%)” value in assay [3] was found to be 93%.
In the case of “Pro-Gln-Gly-Ile-Ala-Gly-Gln (PQGIAGQ; also: fluorescence label, site not given here) [Pro-Gln-Gly-↓-Ile-Ala-Gly-Gln, fluorescence-labeled synthetic substrate degraded by the enzyme of the earlier publication]”, the “Protease cutting activity (degradation of synthetic substrate), Enzyme of the present invention” value in assay [1] is “(X) Does not degrade”. Besides, the “Protease cutting activity (degradation of synthetic substrate), Enzyme of patent application publication” value in assay [5] is “(◯) Degrades”.
As for `O=C(O)CN(CCOCCOCCN(CC(=O)O)CC(=O)O)CC(=O)O` [EGTA], in assay [3] (inhibitor 10 mM, 30 min at 37° C., no inhibitor = 100 percent), the “Residual activity (%)” value was 68%.
Turning to “GPAG FAG: fluorescence-labeled synthetic peptide, single letter code (GPAGFAG; also: fluorescence label, site not given here)”, the “Present or Absent” value in assay [1] is “Absent”.
Regarding casein, the Degradation activity result in assay [4] is “exhibits degradation activity”.
On to `O=S(=O)(F)Cc1ccccc1` [PMSF, phenylmethanesulfonyl fluoride], for which the Enzyme inhibition result in assay [2] is “not”. Besides, the “Residual activity (%)” value in assay [3] (setting [6]) turned out to be 84%.
For `OCCS` [2-ME, 2-mercaptoethanol], the “Residual activity (%)” value in assay [3] (setting [6]) is 73%.
On to “AG FAGP: fluorescence-labeled synthetic peptide, single letter code (AGFAGP; also: fluorescence label, site not given here)”, for which, in assay [1], the “Present or Absent” value was “Absent”.
With “Nma-Gly-Pro-Ala-Gly-Phe-Ala-Gly-Pro-Lys-(DNP)r-NH2 ({Benzoyl(2-NHMe)}-GPAGFAGP-{K(DNP)-dR-NH2}; SMILES CNc1ccccc1C(=O)NCC(=O)N1CCC[C@H]1C(=O)N[C@@H](C)C(=O)NCC(=O)N[C@@H](Cc1ccccc1)C(=O)N[C@@H](C)C(=O)NCC(=O)N1CCC[C@H]1C(=O)N[C@@H](CCCCNc1ccc([N+](=O)[O-])cc1[N+](=O)[O-])C(=O)N[C@H](CCCNC(=N)N)C(N)=O) [Gly-Pro-Ala-Gly-↓-Phe-Ala-Gly-Pro, fluorescence-labeled synthetic substrate]”, in assay [1], the “Protease cutting activity (degradation of synthetic substrate), Enzyme of the present invention” value is given as “(◯) Degrades” and the “Present or Absent” value is on record as “Present”. The “Protease cutting activity (degradation of synthetic substrate), Enzyme of patent application publication” value in assay [5] was “(X) Does not degrade”.
“Nma-Thr-Gln-Ser-Leu-Val-Thr-Pro-Lys-(DNP)r-NH2 [Gln-Thr-Gln-Ser-↓-Leu-Val-Thr-Pro]”: the “Protease cutting activity (degradation of synthetic substrate), Enzyme of the present invention” value in assay [1] is given as “(◯) Degrades”. Moreover, in assay [5], the “Protease cutting activity (degradation of synthetic substrate), Enzyme of patent application publication” value was “(X) Does not degrade”.
“GPAG F: fluorescence-labeled synthetic peptide, single letter code (GPAGF; also: fluorescence label, site not given here)”: in assay [1], the “Present or Absent” value is “Absent”.
In the case of `N[C@@H](CS)C(=O)O` [L-Cys, L-cysteine], the Enzyme inhibition entry in assay [2] is given as “inhibited”. Besides, the “Residual activity (%)” value in assay [3] (setting [6]) is recorded as 0%.
As to `CC(=O)N[C@@H](CC(C)C)C(=O)N[C@@H](CC(C)C)C(=O)N[C@H](C=O)CCCNC(=N)N` [Leupepsin, leupepsin], in assay [3] (setting [7]), the “Residual activity (%)” value is reported as 92%.
On the same count and under the same terms, the same measure for `CC(C)C[C@H](NC(=O)[C@@H](NC(=O)N[C@@H](Cc1ccccc1)C(=O)O)[C@@H]1CCN=C(N)N1)C(=O)N[C@H](C=O)Cc1ccccc1` [Chymostatin, chymostatin]: 85%.
For the molecule `NC(=O)CI` [Iodoacetamide, iodoacetamide], the Enzyme inhibition result in assay [2] is listed as “not”. The “Residual activity (%)” value in assay [3] (setting [6]) is given as 77%.
For `CC(C)C[C@H](NP(=O)(O)O[C@@H]1O[C@@H](C)[C@H](O)[C@@H](O)[C@H]1O)C(=O)N[C@@H](Cc1c[nH]c2ccccc12)C(=O)O` [Phosphoramidon, phosphoramidon], the “Residual activity (%)” value in assay [3] (setting [7]) was found to be 91%.
As for “DNP-Gln-Gly-Ile-Ala-Gly-Gln-D-Arg (Dnp-QGIAGQ[dR]) [synthetic substrate]”, the Degradation activity result in assay [4] is recorded as “no degradation activity”.
Regarding “G FAGP: fluorescence-labeled synthetic peptide, single letter code (GFAGP; also: fluorescence label, site not given here)”, the “Present or Absent” value in assay [1] is listed as “Absent”.
In the case of `CC(C)C[C@H](NC(=O)[C@H]1O[C@@H]1C(=O)O)C(=O)NCCCCN=C(N)N` [E-64], the “Residual activity (%)” value in assay [3] (setting [7]) was determined as 95%.
Consider “Nma-Gly-Pro-Gln-Gly-Phe-Gln-Gly-Pro-Lys-(DNP)r-NH2 ({Benzoyl(2-NHMe)}-GPQGFQGP-{K(DNP)-dR-NH2}; SMILES CNc1ccccc1C(=O)NCC(=O)N1CCC[C@H]1C(=O)N[C@@H](CCC(N)=O)C(=O)NCC(=O)N[C@@H](Cc1ccccc1)C(=O)N[C@@H](CCC(N)=O)C(=O)NCC(=O)N1CCC[C@H]1C(=O)N[C@@H](CCCCNc1ccc([N+](=O)[O-])cc1[N+](=O)[O-])C(=O)N[C@H](CCCNC(=N)N)C(N)=O) [Gly-Pro-Gln-Gly-↓-Phe-Gln-Gly-Pro, fluorescence-labeled synthetic substrate]”, for which, in assay [1], the “Protease cutting activity (degradation of synthetic substrate), Enzyme of the present invention” value was “(◯) Degrades”. Moreover, the “Protease cutting activity (degradation of synthetic substrate), Enzyme of patent application publication” value in assay [5] is reported as “(X) Does not degrade”.

The record behind these values is patent US7871797B2, “DNA encoding a bacterial protease for degrading gelatin and collagen” (Jellice Co., Ltd., priority 2003, dated 2011).
